These results are taken from US20100029752A1, “NOVEL COMPOUNDS, PHARMACEUTICAL COMPOSITIONS CONTAINING SAME, AND METHODS OF USE FOR SAME” (priority 2005, published 2010).

The subject of test [1] is Pseudomonas aeruginosa (ATCC # 27853). Description: Broth microdilution MIC, P. aeruginosa. In kind it is cell-based. The settings on record: for PSAE/MH (MIC): Mueller Hinton Broth. As to the method:
(§1) A broth microdilution assay is used to assess the antimicrobial activity of the compounds. […] Microorganisms tested include Staphylococcus aureus (ATCC # 29213), Enterococcus faecalis (ATCC # 29212), Pseudomonas aeruginosa (ATCC # 27853), and Escherichia coli (ATCC # 25922). The assay is performed in two growth media, Mueller Hinton Broth and Trypticase Soy Broth. A blood (Tsoy/5% sheep blood) agar plate is inoculated from frozen stocks maintained in T soy broth containing 10% glycerol and incubated overnight at 37° C. Colonies are suspended in sterile broth so that the turbidity matches the turbidity of a 0.5 McFarland standard. The inoculum is diluted 1:10 in sterile broth (Mueller Hinton or Trypticase soy) and 195 ul is dispensed per well of a 96-well plate. The compounds to be tested, dissolved in DMSO, are added to the wells in 5 ul volume at the following concentrations: 25, 12.5, 6.25, 3.125, 1.56 and 0.78 ug/ml in duplicate. Additional concentrations are tested if required. 5 ul of DMSO added to duplicate wells are the vehicle control. Serial dilutions of positive control compounds, vancomycin (E. faecalis and S. aureus) and tobramycin (E. coli and P. aeruginosa), are included in each run. After 24 hours of incubation at 37° C., plates are read at OD600 on a Molecular Devices SpectraMax Plus Spectrophotometer. Average OD600 values are computed using SOFTmax Pro Software (Molecular Devices) and MIC values are determined by linear regression analysis using Prism version 3.02 (Graph Pad Software, San Diego). The MIC is defined as the concentration of compound required to produce an OD600 reading equivalent to 10% of the vehicle control reading.
For orientation: Broth dilution looks for growth in wells or tubes with falling amounts of substance.

Test [2] relates to MCF-7 human breast cancer cells. Briefly: Crystal violet cell growth assay. Format: cell-based. The settings on record: MCF7, MCF-7 cells, 72 hours, read-out: Cr. Violet (IC50). The protocol: The crystal violet assay measures cell growth but not cytotoxicity. This assay employs crystal violet staining of fixed cells in 96-well plates with subsequent solubilization and measurement of OD490 on a spectrophotometer. The OD490 corresponds to cell growth per unit time measured. Cells are treated with the compounds of interest or vehicle controls and IC50 for each compound is computed.
To measure the cytotoxicity of specific compounds against cancer cells, 5×10^4 MCF-7 human breast cancer cells, obtained from the American Type Culture Collection are plated per well in 24 well plates in DMEM medium with 10% fetal bovine serum, penicillin, and streptomycin. Following overnight culture at 37° C. and 5% CO2, the compounds to be tested, dissolved in DMSO, are added to the wells in 1 μl volume at the following concentrations: 50, 40, 30, 20, and 10 μg/ml in triplicate. Additional concentrations are tested if required. 1 μl of DMSO is added to triplicate wells are the vehicle control. C75 is run at 10, and 5 μg/ml in triplicate as positive controls.
After 72 hours of incubation, cells are stained with 0.5 ml of Crystal Violet stain (0.5% in 25% methanol) in each well. After 10 minutes, wells are rinsed, air dried, and then solubilized with 0.5 ml 10% sodium dodecylsulfate with shaking for 2 hours. Following transfer of 100 μl from each well to a 96-well plate, plates are read at OD490 on a Molecular Devices SpectraMax Plus Spectrophotometer Average OD490 values are computed using SOFTmax Pro Software (Molecular Devices) and IC50 values are determined by linear regression analysis using Prism version 3.02 (Graph Pad Software, San Diego).

The test system of test [3] is Staphylococcus aureus (ATCC # 29213). Briefly: Broth microdilution MIC, S. aureus. The settings on record: for MIC: Staphylococcus aureus, ATCC29213. In kind it is cell-based. As to the method: as §1
Test [4] has as its system Enterococcus faecalis (ATCC # 29212). Briefly: Broth microdilution MIC, E. faecalis. In kind it is cell-based. The settings on record: for MIC: Enterococcus faecalis, ATCC29212. As to the method:
as §1

In test [5] the test system is Escherichia coli (ATCC # 25922). Description: Broth microdilution MIC, E. coli. Format: cell-based. The settings on record: for MIC: Escherichia coli, ATCC25922. The protocol: as §1
The next test is described as follows: Weight loss screen. The settings on record: 60 mg/kg intraperitoneally. Format: in vivo, Balb/C mice. As to the method:
Balb/C mice (Jackson Labs) are utilized for the initial weight loss screening. Animals are housed in temperature and 12 hour day/night cycle rooms and fed mouse chow and water ad lib. Three mice are utilized for each compound tested with vehicle controls in triplicate per experiment. For the experiments, mice are housed separately for each compound tested three mice to a cage. Compounds are diluted in DMSO at 10 mg/ml and mice are injected intraperitoneally with 60 mg/kg in approximately 100 μl of DMSO or with vehicle alone. Mice are observed and weighed daily; average weights and standard errors are computed with Excel (Microsoft). The experiment continues until treated animals reach their pretreatment weights. Select compounds are tested in animals housed in metabolic cages. Dosing of animals are identical to the screening experiments with three animals to a single metabolic cage. Animal weights, water and food consumption, and urine and feces production are measured daily.

For a further test, the target named is T1, FAS (Homo sapiens, UniProt P49327).
T1 construct: Human FAS was purified from cultured ZR-75-1 human breast cancer cells; endogenous in cells
T1 sequence (P49327 whole entry): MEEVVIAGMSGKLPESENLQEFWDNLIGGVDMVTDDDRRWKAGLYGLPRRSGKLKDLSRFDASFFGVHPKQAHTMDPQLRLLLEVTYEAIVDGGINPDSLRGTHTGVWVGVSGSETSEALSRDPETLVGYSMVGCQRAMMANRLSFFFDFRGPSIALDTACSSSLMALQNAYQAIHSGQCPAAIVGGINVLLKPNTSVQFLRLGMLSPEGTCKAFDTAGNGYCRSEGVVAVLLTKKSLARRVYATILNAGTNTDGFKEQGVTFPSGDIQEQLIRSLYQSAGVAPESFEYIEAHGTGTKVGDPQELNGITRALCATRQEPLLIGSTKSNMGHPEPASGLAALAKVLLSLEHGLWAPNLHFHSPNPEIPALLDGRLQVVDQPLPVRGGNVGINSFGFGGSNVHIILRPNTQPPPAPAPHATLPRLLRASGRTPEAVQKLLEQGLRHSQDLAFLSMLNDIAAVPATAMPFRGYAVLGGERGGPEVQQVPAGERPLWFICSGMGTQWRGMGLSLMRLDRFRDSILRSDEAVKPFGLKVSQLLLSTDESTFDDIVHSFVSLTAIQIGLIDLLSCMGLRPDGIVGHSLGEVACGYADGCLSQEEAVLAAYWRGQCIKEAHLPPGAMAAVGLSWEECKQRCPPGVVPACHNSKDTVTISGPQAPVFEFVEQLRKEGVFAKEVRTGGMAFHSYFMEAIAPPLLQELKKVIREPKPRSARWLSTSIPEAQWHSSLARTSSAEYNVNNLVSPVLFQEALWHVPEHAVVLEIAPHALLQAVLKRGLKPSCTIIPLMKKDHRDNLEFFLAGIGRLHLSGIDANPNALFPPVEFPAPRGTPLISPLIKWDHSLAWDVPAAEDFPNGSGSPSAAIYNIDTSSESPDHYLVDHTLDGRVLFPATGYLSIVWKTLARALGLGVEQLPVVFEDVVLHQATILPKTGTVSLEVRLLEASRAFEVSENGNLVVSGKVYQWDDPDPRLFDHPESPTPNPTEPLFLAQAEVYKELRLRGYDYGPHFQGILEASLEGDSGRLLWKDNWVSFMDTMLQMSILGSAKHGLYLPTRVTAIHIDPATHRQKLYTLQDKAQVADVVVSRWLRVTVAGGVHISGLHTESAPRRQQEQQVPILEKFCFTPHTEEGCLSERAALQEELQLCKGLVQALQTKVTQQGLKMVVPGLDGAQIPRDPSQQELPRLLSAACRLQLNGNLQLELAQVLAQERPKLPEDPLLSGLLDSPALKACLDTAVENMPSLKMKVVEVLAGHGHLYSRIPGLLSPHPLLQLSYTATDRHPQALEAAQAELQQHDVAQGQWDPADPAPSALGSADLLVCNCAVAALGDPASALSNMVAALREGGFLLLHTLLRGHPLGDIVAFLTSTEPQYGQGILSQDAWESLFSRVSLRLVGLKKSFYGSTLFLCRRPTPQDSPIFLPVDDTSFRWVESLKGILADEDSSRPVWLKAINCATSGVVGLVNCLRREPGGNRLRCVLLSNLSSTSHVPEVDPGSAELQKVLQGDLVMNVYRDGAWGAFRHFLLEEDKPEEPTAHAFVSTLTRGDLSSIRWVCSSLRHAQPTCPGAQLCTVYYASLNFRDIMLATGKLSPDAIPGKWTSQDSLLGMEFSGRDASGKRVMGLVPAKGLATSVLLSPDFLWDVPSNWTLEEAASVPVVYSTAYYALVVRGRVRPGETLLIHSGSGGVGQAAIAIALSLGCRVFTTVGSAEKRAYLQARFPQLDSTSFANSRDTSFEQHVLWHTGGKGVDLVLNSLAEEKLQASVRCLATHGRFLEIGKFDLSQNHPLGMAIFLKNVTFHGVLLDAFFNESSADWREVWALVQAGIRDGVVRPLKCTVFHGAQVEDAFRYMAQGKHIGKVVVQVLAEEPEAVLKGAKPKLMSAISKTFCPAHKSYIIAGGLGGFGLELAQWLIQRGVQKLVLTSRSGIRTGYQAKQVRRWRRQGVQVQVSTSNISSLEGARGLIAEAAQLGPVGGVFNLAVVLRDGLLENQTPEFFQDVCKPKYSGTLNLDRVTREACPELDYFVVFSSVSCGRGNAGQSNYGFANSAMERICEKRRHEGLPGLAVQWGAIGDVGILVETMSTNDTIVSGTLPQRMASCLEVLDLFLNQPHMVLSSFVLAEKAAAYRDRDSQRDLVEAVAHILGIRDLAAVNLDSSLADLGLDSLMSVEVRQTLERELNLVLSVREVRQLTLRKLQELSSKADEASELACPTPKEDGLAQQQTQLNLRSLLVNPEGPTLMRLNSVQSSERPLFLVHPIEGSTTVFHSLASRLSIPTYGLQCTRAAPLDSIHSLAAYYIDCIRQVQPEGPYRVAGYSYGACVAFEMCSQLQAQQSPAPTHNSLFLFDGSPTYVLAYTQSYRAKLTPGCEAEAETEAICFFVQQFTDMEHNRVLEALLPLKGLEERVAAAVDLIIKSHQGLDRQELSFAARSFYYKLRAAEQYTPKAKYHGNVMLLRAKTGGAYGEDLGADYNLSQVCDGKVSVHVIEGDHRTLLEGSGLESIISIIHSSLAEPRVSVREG
Description: FAS (IC50) marked (SB). The settings on record: value marked (SB), not defined. In kind it is biochemical.

The mark [6] stands for this setting: Mueller Hinton Broth, read-out: SA/MH (MIC).
[7] abbreviates: Mueller Hinton Broth, read-out: EF/MH (MIC).
Setting [8] is: Trypticase Soy Broth, read-out: EF/Tsoy (MIC).

≈ marks a conversion by molar mass, not a printed value. Read-outs that look alike come from different tables or passages of the source.

The IC50 is the point on the concentration scale where inhibition reaches its midpoint. `COC(=O)c1sc(C(=O)O)cc1O`: the “PSAE/MH (MIC)” value in test [1] is “Neg”. Also, in test [1] (Trypticase Soy Broth), the “PSAE/Tsoy (MIC)” value is “Neg”. Besides, the half-maximal inhibitory concentration (IC50) in test [2] was > 80 µg/mL. For the same compound, the MIC in test [3] (setting [6]) was 149 µg/mL (≈ 737 µM); in test [4] (setting [7]), 101 µg/mL (≈ 500 µM). The “SA/Tsoy (MIC)” value in test [3] (Trypticase Soy Broth) is on record as “Neg”. Also, the “EF/Tsoy (MIC)” value in test [4] (Trypticase Soy Broth) is recorded as “Neg”. Also, the “Ecoli/MH (MIC)” value in test [5] (Mueller Hinton Broth) is “Neg”. Also, in test [5] (Trypticase Soy Broth), the “Ecoli/Tsoy (MIC)” value is “Neg”.
As to `CCCCCCCCNC(=O)c1cc(O)c(C(=O)OC)s1`, the “PSAE/MH (MIC)” value in test [1] is given as “Neg”. Also, in test [1] (Trypticase Soy Broth), the “PSAE/Tsoy (MIC)” value was “Neg”. Besides, the half-inhibitory concentration (IC50) in test [2] stood at 38.8 µg/mL (≈ 124 µM). Besides, the “SA/MH (MIC)” value in test [3] (Mueller Hinton Broth) was “Neg”. Also, in test [3] (Trypticase Soy Broth), the “SA/Tsoy (MIC)” value is on record as “Neg”. The “EF/MH (MIC)” value in test [4] (Mueller Hinton Broth) is on record as “Neg”. The “EF/Tsoy (MIC)” value in test [4] (Trypticase Soy Broth) was “Neg”. Further, the “Ecoli/MH (MIC)” value in test [5] (Mueller Hinton Broth) is on record as “Neg”. Moreover, in test [5] (Trypticase Soy Broth), the “Ecoli/Tsoy (MIC)” value is given as “Neg”.
`C=CCNC(=O)c1cc(O)c(C(=O)OC)s1`: the “PSAE/MH (MIC)” value in test [1] is given as “Neg”. In addition, the “PSAE/Tsoy (MIC)” value in test [1] (Trypticase Soy Broth) was “Neg”. Also, the concentration for half-maximal inhibition (IC50) in test [2] is > 80 µg/mL. Besides, the values for the MIC in test [3] (setting [6]), in test [4] (setting [7]) and in test [4] (setting [8]) were 80 µg/mL (≈ 332 µM), 88 µg/mL (≈ 365 µM) and 134 µg/mL (≈ 555 µM), respectively. The “SA/Tsoy (MIC)” value in test [3] (Trypticase Soy Broth) is reported as “Neg”. Moreover, the “Weight Loss” value in the test “Weight loss screen” (day 1) is 60 mg/kg: +2.3% (day 1). Also, the “Ecoli/MH (MIC)” value in test [5] (Mueller Hinton Broth) is reported as “Neg”. For the same compound, in test [5] (Trypticase Soy Broth), the “Ecoli/Tsoy (MIC)” value is recorded as “Neg”.
In the case of `CCCCCCCCNNC(=O)c1cc(O)c(C(=O)OC)s1`, the IC50 in test [2] worked out at 31.7 µg/mL (≈ 96.5 µM).
Turning to `COC(=O)c1sc(C(=O)NNc2ccc(Cl)cc2)cc1O`, the “PSAE/MH (MIC)” value in test [1] was “Neg”. Further, the “PSAE/Tsoy (MIC)” value in test [1] (Trypticase Soy Broth) was “Neg”. Besides, the values for the IC50 (in test [2]; on FAS) were 18.1 ± 4.4 µg/mL (≈ 55.4 µM) and 305 µM, respectively. For the same compound, the MIC in test [3] (setting [6]) was 66 µg/mL (≈ 202 µM); in test [3] (Trypticase Soy Broth, read-out: SA/Tsoy (MIC)), 227 µg/mL (≈ 695 µM); in test [5] (Mueller Hinton Broth, read-out: Ecoli/MH (MIC)), 136 µg/mL (≈ 416 µM). In addition, in “Weight loss screen” (day 1), the “Weight Loss” value was 60 mg/kg: +1.2% (day 1). Also, in test [4] (Mueller Hinton Broth), the “EF/MH (MIC)” value was “Neg”. Also, the “EF/Tsoy (MIC)” value in test [4] (Trypticase Soy Broth) is “Neg”. In test [5] (Trypticase Soy Broth), the “Ecoli/Tsoy (MIC)” value is “Neg”.
As to `CCCCCCCCNC(=O)c1cc(O)cs1`, in test [1], the “PSAE/MH (MIC)” value was “Neg”. For the same compound, the MIC is 83 µg/mL (≈ 325 µM) in test [1] (Pseudomonas aeruginosa, ATCC27853, Trypticase Soy Broth, read-out: PSAE/Tsoy (MIC)); 82 µg/mL (≈ 321 µM) in test [3] (setting [6]); 123 µg/mL (≈ 482 µM) in test [4] (setting [8]); 89 µg/mL (≈ 348 µM) in test [5] (Trypticase Soy Broth, read-out: Ecoli/Tsoy (MIC)). Besides, the “PSAE/Tsoy (MIC)” value in test [1] (Trypticase Soy Broth) is reported as “(MIC) Neg”. In addition, the concentration for half-maximal inhibition (IC50) in test [2] was 8.5 ± 2.1 µg/mL (≈ 33.3 µM); at FAS, 325 µM. Also, the “SA/Tsoy (MIC)” value in test [3] (Trypticase Soy Broth) was “Neg”. Further, in “Weight loss screen” (day 2), the “Weight Loss” value was 60 mg/kg: 1.6% (day 2). Moreover, the “EF/MH (MIC)” value in test [4] (Mueller Hinton Broth) is given as “Neg”. The “Ecoli/MH (MIC)” value in test [5] (Mueller Hinton Broth) is on record as “Neg”.
